Source: paper PMC4734386 (The Journal of organic chemistry, 2015)

Target: porcine pancreatic elastase (PPE) (Sus scrofa, UniProt P00772)
Test: PPE enzyme assay
Format: biochemical

porcine pancreatic elastase (PPE), sequence (P00772 27-266): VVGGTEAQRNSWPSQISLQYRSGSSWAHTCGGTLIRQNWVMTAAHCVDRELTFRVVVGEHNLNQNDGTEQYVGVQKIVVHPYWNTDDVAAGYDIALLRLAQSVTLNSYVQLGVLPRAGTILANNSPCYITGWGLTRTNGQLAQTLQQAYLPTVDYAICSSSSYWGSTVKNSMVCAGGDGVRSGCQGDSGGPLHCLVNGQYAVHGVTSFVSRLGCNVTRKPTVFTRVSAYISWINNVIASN

CC(C)(C)C(=O)Oc1ccc(S(=O)(=O)Nc2ccccc2C(=O)NCC(=O)O)cc1 [sivelestat] gave an IC50 of 3.08 µM.
